Experimental data from publication PMC12856317, “A reversible feedback mechanism regulating mitochondrial heme synthesis” (The Journal of Biological Chemistry, 2025).

Columns and labels:
Experiment in all cases: Isothermal titration calorimetry, hemin-protein interaction
Assay type in all cases: binding
Conditions in all cases: ITC, 25 °C
[1] = target: T1, WT human ALAS2 (residues 54–587) (Homo sapiens, UniProt P22557)
T1 construct: His6-SUMO (N, cleaved yes); made in house; host or cells: Escherichia coli BL21-Codon Plus (DE3)-RIL
T1 sequence (P22557 54-587): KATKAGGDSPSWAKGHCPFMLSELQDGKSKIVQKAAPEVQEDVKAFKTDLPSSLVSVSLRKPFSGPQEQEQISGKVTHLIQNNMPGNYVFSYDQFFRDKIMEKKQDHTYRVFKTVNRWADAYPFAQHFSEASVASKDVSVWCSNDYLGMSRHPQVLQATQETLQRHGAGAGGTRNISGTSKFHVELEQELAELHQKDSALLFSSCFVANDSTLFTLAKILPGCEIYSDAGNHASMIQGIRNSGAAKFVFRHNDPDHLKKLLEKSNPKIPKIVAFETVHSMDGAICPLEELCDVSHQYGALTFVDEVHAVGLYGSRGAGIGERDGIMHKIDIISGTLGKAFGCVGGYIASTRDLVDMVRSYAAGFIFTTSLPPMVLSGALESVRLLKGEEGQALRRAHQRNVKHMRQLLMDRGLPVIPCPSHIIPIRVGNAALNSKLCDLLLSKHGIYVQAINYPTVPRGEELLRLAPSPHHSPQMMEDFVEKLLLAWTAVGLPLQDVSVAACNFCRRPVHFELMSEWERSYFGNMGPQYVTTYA
Experimental: (§1) Binding curves of the hemin-protein interaction were determined using Nano-ITC instrument (TA instruments) at 25 °C. Hemin was dissolved in 1 M NaOH and autoclaved to prepare a stock solution of 746 μM, ε385nm = 58,440 M^−1 cm^−1. The stock solution was diluted to 1.5 μM in titration buffer containing 25 mM Hepes, pH 7, 150 mM KCl, and 0.5 mM TCEP. Protein samples were dialyzed into the titration buffer and diluted to a final concentration of 40 μM. Fixed volumes of protein were injected at 200-s intervals into the cell containing hemin. An A + B hetero-association model was used to determine the thermodynamic parameters for each variant. Data were integrated and analyzed using NITPIC and SEDPHAT and visualized using GUSSI ([71], [72], [73]).

[2] = target: T2, human ALAS2 ΔC (residues 54–547) (Homo sapiens, UniProt P22557)
T2 construct: a truncation without the C-terminal CXXC motif (ΔC, residues 54–547); His6-SUMO (N, cleaved yes); made in house; host or cells: Escherichia coli BL21-Codon Plus (DE3)-RIL
T2 sequence (P22557 54-547): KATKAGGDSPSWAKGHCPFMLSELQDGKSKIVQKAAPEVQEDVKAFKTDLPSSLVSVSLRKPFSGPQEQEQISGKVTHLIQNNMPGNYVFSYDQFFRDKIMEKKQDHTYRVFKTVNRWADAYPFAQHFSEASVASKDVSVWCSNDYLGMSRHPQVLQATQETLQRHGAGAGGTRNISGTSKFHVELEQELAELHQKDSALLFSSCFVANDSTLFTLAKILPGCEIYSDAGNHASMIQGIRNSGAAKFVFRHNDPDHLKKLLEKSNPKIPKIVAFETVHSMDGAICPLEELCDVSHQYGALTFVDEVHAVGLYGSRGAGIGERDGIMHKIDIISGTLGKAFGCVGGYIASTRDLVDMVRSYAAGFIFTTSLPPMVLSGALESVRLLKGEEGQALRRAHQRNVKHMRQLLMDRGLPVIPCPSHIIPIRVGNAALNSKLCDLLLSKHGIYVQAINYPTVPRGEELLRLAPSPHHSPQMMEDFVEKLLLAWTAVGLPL
Experimental: as §1

[3] = target: T3, human ALAS2 ΔN (residues 75–587) (Homo sapiens, UniProt P22557)
T3 construct: a truncation without HRM3 (ΔN, residues 75–587); His6-SUMO (N, cleaved yes); made in house; host or cells: Escherichia coli BL21-Codon Plus (DE3)-RIL
T3 sequence (P22557 75-587): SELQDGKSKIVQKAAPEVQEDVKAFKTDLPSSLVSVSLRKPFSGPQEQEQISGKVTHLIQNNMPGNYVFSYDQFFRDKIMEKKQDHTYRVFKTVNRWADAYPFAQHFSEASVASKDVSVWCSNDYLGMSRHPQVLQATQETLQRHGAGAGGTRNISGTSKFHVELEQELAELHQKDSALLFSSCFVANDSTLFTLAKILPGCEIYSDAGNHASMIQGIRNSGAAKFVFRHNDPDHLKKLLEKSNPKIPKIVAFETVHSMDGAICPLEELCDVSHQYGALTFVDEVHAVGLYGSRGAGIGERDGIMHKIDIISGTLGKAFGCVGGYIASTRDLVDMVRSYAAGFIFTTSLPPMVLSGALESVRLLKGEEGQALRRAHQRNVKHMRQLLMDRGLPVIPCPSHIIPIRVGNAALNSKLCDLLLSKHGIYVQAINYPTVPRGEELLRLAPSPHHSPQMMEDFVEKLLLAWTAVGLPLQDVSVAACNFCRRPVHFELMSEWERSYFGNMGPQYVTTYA
Experimental: as §1

[4] = 95% confidence interval in brackets

ΔG [1]: -9.05 kcal/mol
ΔS [1]: −1.25 kcal/mol K
Kd [1, 4]: 232 nM
ΔH [1, 4]: −382 [−440, −342] kcal/mol
Kd ([1]; 95% confidence interval in brackets, listed as heme): ~230 nM
ΔG [2]: -8.94 kcal/mol
ΔS [2]: −1.80 kcal/mol K
Kd [2, 4]: 279 nM
ΔH [2, 4]: −544 [−604, −499] kcal/mol
ΔG [3]: -8.50 kcal/mol
ΔS [3]: −3.35 kcal/mol K
Kd [3, 4]: 589 nM
ΔH [3, 4]: −1006 [−1432, −810] kcal/mol
Substance: ferric chloride heme [hemin]
